From patent publication US20230250088A1, “COMPOUNDS AND COMPOSITIONS FOR TREATING CONDITIONS ASSOCIATED WITH STING ACTIVITY” (IFM Due, Inc., priority 2020, published 2023) come the findings set out here.

The structures appear in SMILES notation. Several values for one entry are separate records, joined by “and”; a condition that tells them apart may be missing. Identical values can stand only once.

The target of one assay is T1, hSTING (Homo sapiens, UniProt Q86WV6, G230A/H232R/R293Q/R71H).
T1 construct: host or cells: THP1-Dual KO-IFNAR2 cells
T1 sequence (Q86WV6 whole entry R71H/G230A/H232R/R293Q): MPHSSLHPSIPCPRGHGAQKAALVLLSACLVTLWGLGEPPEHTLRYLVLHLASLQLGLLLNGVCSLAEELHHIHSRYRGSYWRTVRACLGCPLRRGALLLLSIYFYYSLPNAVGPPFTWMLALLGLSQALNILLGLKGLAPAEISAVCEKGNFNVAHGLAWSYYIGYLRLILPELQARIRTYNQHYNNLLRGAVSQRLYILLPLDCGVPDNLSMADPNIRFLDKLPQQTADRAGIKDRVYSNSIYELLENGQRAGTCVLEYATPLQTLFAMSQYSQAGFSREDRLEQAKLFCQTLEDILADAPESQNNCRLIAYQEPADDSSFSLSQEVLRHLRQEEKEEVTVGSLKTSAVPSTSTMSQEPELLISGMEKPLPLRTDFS
The experiment in a line: STING reporter assay (luciferase) in THP1-Dual KO-IFNAR2 cells activated with 2′3′cGAMP. Format: cell-based. To be noted: THP1-Dual KO-IFNAR2 cells; 2′3′cGAMP 15 μM final, Lipofectamine 2000; 24 h; luciferase reporter activity; read-out: hSTING EC50. As to the method:
STING pathway activation by the compounds described herein was measured using THP1-Dual™ cells (KO-IFNAR2).
THP1-Dual™ KO-IFNAR2 Cells (obtained from invivogen) were maintained in RPMI, 10% FCS, 5 ml P/S, 2 mM L-glut, 10 mM Hepes, and 1 mM sodium pyruvate. Compounds were spotted in empty 384 well tissue culture plates (Greiner 781182) by Echo for a final concentration of 0.0017-100 μM. Cells were plated into the TC plates at 40 μL per well, 2×10E6 cells/mL. For activation with STING ligand, 2′3′cGAMP (MW 718.38, obtained from Invivogen), was prepared in Optimem media.
The following solutions were prepared for each 1×384 plate: • Solution A: 2 mL Optimem with one of the following stimuli: • 60 μL of 10 mM 2′3′cGAMP→150 μM stock • Solution B: 2 mL Optimem with 60 μL Lipofectamine 2000→Incubate 5 min at RT
2 mL of solution A and 2 ml Solution B was mixed and incubated for 20 min at room temperature (RT). 20 μL of transfection solution (A+B) was added on top of the plated cells, with a final 2′3′cGAMP concentration of 15 μM. The plates were then centrifuged immediately at 340 g for 1 minute, after which they were incubated at 37° C., 5% CO2, >98% humidity for 24h. Luciferase reporter activity was then measured. EC50 values were calculated by using standard methods known in the art.
Luciferase reporter assay: 10 μL of supernatant from the assay was transferred to white 384-plate with flat bottom and squared wells. One pouch of QUANTI-Luc™ Plus was dissolved in 25 mL of water. 100 μL of QLC Stabilizer per 25 mL of QUANTI-Luc™ Plus solution was added. 50 μL of QUANTI-Luc™ Plus/QLC solution per well was then added. Luminescence was measured on a Platereader (e.g., Spectramax I3X (Molecular Devices GF3637001)).
Luciferase reporter activity was then measured. EC50 values were calculated by using standard methods known in the art.
As for `O=C(Nc1c[nH]c2cc(F)c(F)cc12)c1c2ccccc2nn1Cc1ccc(C(F)(F)F)cc1` [Compound 101], the EC50 is 1000 to 5000 nM.

`O=C(Nc1c[nH]c2cc(F)c(F)cc12)c1c2ccccc2nn1CCC(F)(F)F` [Compound 102]: the EC50 was in the range of 5000 to 100000 nM.

As to `Cc1ccc2c(C(=O)Nc3c[nH]c4cc(F)c(F)cc34)cnn2c1` [Compound 104], the EC50 is 200 to 1000 nM.

For the compound `O=C(Nc1c[nH]c2cc(F)c(F)cc12)c1cnc2cc(C(F)(F)F)ccn12` [Compound 105], the EC50 lay in the range of 1000 to 5000 nM.

For the compound `CC(C)(C)OC(=O)N1CCc2c(C(=O)Nc3c[nH]c4cc(F)c(F)cc34)csc2C1` [Compound 109, tert-butyl 3-((5,6-difluoro-1H-indol-3-yl)carbamoyl)-4.5-dihydrothieno[2,3-c]pyridine-6(7H)-carboxylate], the EC50 lay in the range of 200 to 1000 nM.

For `CC(C)(C)OC(=O)N1Cc2n[nH]c(C(=O)Nc3c[nH]c4cc(F)c(F)cc34)c2C1` [Compound 110, tert-butyl 3-((5,6-difluoro-1H-indol-3-yl)carbamoyl)-4,6-dihydropyrrolo[3,4-c]pyrazole-5(1H)-carboxylate], the EC50 was 1000 to 5000 nM.

With `CC(C)(C)OC(=O)N1CCn2nc(C(=O)Nc3c[nH]c4cc(F)c(F)cc34)cc2C1` [Compound 111, tert-butyl 2-[(5,6-difluoro-1H-indol-3-yl)carbamoyl]-4H,5H,6H,7H-pyrazolo[1,5-a]pyrazine-5-carboxylate], the EC50 lay in the range of 1000 to 5000 nM.

Regarding `O=C(Nc1c[nH]c2cc(F)c(F)cc12)c1cc2cccnc2s1` [Compound 112, N-(5,6-difluoro-1H-indol-3-yl)thieno[2,3-b]pyridine-2-carboxamide], the EC50 lay within 1000 to 5000 nM.

`O=C(Nc1c[nH]c2cc(F)c(F)cc12)c1cn2cc(C(F)(F)F)ccc2n1` [Compound 113, N-(5,6-difluoro-1H-indol-3-yl)-6-(trifluoromethyl)imidazo[1,2-a]pyridine-2-carboxamide]: the EC50 is 1000 to 5000 nM.

Regarding `CC(C)(C)OC(=O)N1CCCn2nc(C(=O)Nc3c[nH]c4cc(F)c(F)cc34)cc2C1` [Compound 114, tert-butyl 2-[(5,6-difluoro-1H-indol-3-yl)carbamoyl]-4H,5H,6H,7H,8H-pyrazolo[1,5-a][1,4]diazepine-5-carboxylate], the EC50 was 5000 to 100000 nM.

Turning to `O=C(Nc1c[nH]c2cc(F)c(F)cc12)C1Cc2[nH]nc(C(F)(F)F)c2C1` (stereo not shown) [Compound 115, N-(5,6-difluoro-1H-indol-3-yl)-3-(trifluoromethyl)-1H,4H,5H,6H-cyclopenta[c]pyrazole-5-carboxamide], the EC50 was in the range of 5000 to 100000 nM.

Consider `O=C(Nc1c[nH]c2cc(F)c(F)cc12)c1cc2ccc(Cl)cn2n1` [Compound 116, 6-chloro-N-(5,6-difluoro-1H-indol-3-yl)pyrazolo[1,5-a]pyridine-2-carboxamide], for which the EC50 fell in the range of 200 to 1000 nM.

For the compound `CC(C)(C)OC(=O)N1CCc2c(C(=O)Nc3c[nH]c4cc(F)c(F)cc34)ncn2CC1` [Compound 117, tert-butyl 1-[(5,6-difluoro-1H-indol-3-yl)carbamoyl]-5H,6H,7H,8H,9H-imidazo[1,5-d][1,4]diazepine-7-carboxylate], the EC50 was 5000 to 100000 nM.

In the case of `O=C(Nc1c[nH]c2cc(F)c(F)cc12)c1n[nH]c2cc(OC(F)(F)F)ccc12` [Compound 118], the EC50 is 200 to 1000 nM.

On to `O=C(Nc1c[nH]c2cc(F)c(F)cc12)c1cn2c(n1)CCC(C(F)(F)F)C2` (stereo not shown) [Compound 120, N-(5,6-difluoro-1H-indol-3-yl)-6-(trifluoromethyl)-5,6,7,8-tetrahydroimidazo[1,2-a]pyridine-2-carboxamide], for which the EC50 fell in the range of 5000 to 100000 nM.

For `O=C(Nc1c[nH]c2cc(F)c(F)cc12)c1cccc2nn(Cc3ccc(C(F)(F)F)cc3)cc12` [Compound 121], the EC50 was 200 to 1000 nM.

Consider `O=C(Nc1c[nH]c2cc(F)c(F)cc12)c1cccc2c1cnn2Cc1ccc(C(F)(F)F)cc1` [Compound 122], for which the EC50 was in the range of 200 to 1000 nM.

For `CCC1Cc2ccc(C(=O)Nc3c[nH]c4cc(F)c(F)cc34)cc2C1` (stereo not shown) [Compound 123], the EC50 lay in the range of 200 to 1000 nM.

For the compound `O=C(Nc1c[nH]c2cc(F)c(F)cc12)c1ccc2c(c1)OCCCO2` [Compound 124, N-(5,6-difluoro-1H-indol-3-yl)-3,4-dihydro-2H-benzo[b][1,4]dioxepine-7-carboxamide], the EC50 fell in the range of 200 to 1000 nM.

In the case of `O=C(Nc1c[nH]c2cc(F)c(F)cc12)c1n[nH]c2cc(OCC(F)(F)F)ccc12` [Compound 125], the EC50 lay within 40 to 200 nM.

For the compound `O=C(Nc1c[nH]c2cc(F)c(F)cc12)c1n[nH]c2cc(NCC(F)(F)F)ccc12` [Compound 126], the EC50 is 40 to 200 nM and 200 to 1000 nM.

On to `O=C(Nc1c[nH]c2cc(F)c(F)cc12)c1n[nH]c2cc(OCC(F)(F)F)ncc12` [Compound 128], for which the EC50 is 200 to 1000 nM.

For `O=C(Nc1c[nH]c2cc(F)c(F)cc12)c1n[nH]c2nc(OCC(F)(F)F)ccc12` [Compound 129], the EC50 was in the range of 200 to 1000 nM.

For the compound `Cc1nc(C(=O)Nc2c[nH]c3cc(F)c(F)cc23)c2ccc(C(F)(F)F)cn12` [Compound 134], the EC50 lay within 5000 to 100000 nM.

As to `O=C(Nc1c[nH]c2cc(F)c(F)cc12)c1cccc2nn(CCC(F)(F)F)cc12` [Compound 137], the EC50 lay in the range of 200 to 1000 nM.

As for `O=C(Nc1c[nH]c2cc(F)c(F)cc12)c1cccc2c1cnn2CCC(F)(F)F` [Compound 138], the EC50 was 1000 to 5000 nM.

On to `O=C(Nc1c[nH]c2ccc(Cl)cc12)c1n[nH]c2c1CN(Cc1ccc(C(F)(F)F)cc1)C2` [Compound 142, N-(5-chloro-1H-indol-3-yl)-5-(4-(trifluoromethyl)benzyl)-1,4,5,6-tetrahydropyrrolo[3,4-c]pyrazole-3-carboxamide], for which the EC50 is 200 to 1000 nM.

Turning to `O=C(Nc1c[nH]c2ccc(Cl)cc12)c1n[nH]c2cc(N3CCC(F)(F)CC3)ncc12` [Compound 143, N-(5-chloro-1H-indol-3-yl)-6-(4,4-difluoropiperidin-1-yl)-1H-pyrazolo[4,3-c]pyridine-3-carboxamide], the EC50 was 5000 to 100000 nM.

Take `O=C(Nc1c[nH]c2ccc(Cl)cc12)c1n[nH]c2cc(N3CCN(CC(F)(F)F)CC3)ccc12` [Compound 144]: the EC50 fell in the range of 40 to 200 nM.

In the case of `O=C(Nc1c[nH]c2ccc(Cl)cc12)c1n[nH]c2cc(N3CCC(F)(F)CC3)ccc12` [Compound 146], the EC50 fell in the range of 40 to 200 nM.

For `O=C(Nc1c[nH]c2ccc(Cl)cc12)c1noc2cc(N3CCC(F)(F)CC3)ccc12` [Compound 147], the EC50 fell in the range of 40 to 200 nM.

Consider `O=C(Nc1c[nH]c2ccccc12)c1n[nH]c2cc(OCC(F)(F)F)ccc12` [Compound 148, N-(1H-indol-3-yl)-6-(2,2,2-trifluoroethoxy)-1H-indazole-3-carboxamide], for which the EC50 lay in the range of 40 to 200 nM.

Regarding `O=C(Nc1c[nH]c2ccc(Cl)cc12)c1n[nH]c2cc(OCC(F)(F)F)ccc12` [Compound 149], the EC50 lay within 40 to 200 nM.

Regarding `O=C(Nc1c[nH]c2cc(F)c(F)cc12)c1cnc2cc(OCC(F)(F)F)ccn12` [Compound 150], the EC50 lay in the range of 40 to 200 nM.

As to `O=C(Nc1c[nH]c2cc(F)c(F)cc12)c1n[nH]c2c1CN(CC(F)(F)F)C2` [Compound 151], the EC50 was in the range of 5000 to 100000 nM.

For `O=C(Nc1c[nH]c2cc(F)c(F)cc12)c1n[nH]c2nc(N3CCC(F)(F)CC3)c(Cl)cc12` [Compound 152], the EC50 was 200 to 1000 nM.

Turning to `O=C(Nc1c[nH]c2cc(F)c(F)cc12)c1n[nH]c2nc(N3CCC(F)(F)CC3)ccc12` [Compound 154], the EC50 was in the range of 200 to 1000 nM.

With `O=C(Nc1c[nH]c2cc(F)c(F)cc12)c1n[nH]c2cc(N3CCC(F)(F)CC3)ccc12` [Compound 155], the EC50 is 40 to 200 nM.

Regarding `CC1(C)CCc2c(C(=O)Nc3c[nH]c4cc(F)c(F)cc34)n[nH]c2C1` [Compound 156], the EC50 lay in the range of 1000 to 5000 nM.

On to `Cn1nc2cc(C(F)(F)F)ccc2c1C(=O)Nc1c[nH]c2cc(F)c(F)cc12` [Compound 157], for which the 50% effective concentration (EC50) lay within 5000 to 100000 nM.

For `Cn1nc(C(=O)Nc2c[nH]c3cc(F)c(F)cc23)c2ccc(C(F)(F)F)cc21` [Compound 158], the concentration giving a half-maximal response (EC50) lay within 200 to 1000 nM.

Staying with this assay, now noted: hSTING EC50, THP1-Dual KO-IFNAR2 cells; 2′3′cGAMP 15 μM final, Lipofectamine 2000; 24 h; luciferase reporter activity.
`O=C(Nc1c[nH]c2cc(F)c(F)cc12)c1nn(CCC(F)(F)F)c2ccccc12` [Compound 103] yielded an EC50 of 200 to 1000 nM.

As to `O=C(Nc1c[nH]c2cc(F)c(F)cc12)c1nn(Cc2ccc(C(F)(F)F)cc2)c2ccccc12` [Compound 106, N-(5,6-difluoro-1H-indol-3-yl)-1-[[4-(trifluoromethyl)phenyl]methyl]indazole-3-carboxamide], the EC50 was in the range of 200 to 1000 nM.

The EC50 is the concentration giving half of the maximal effect.
